{
  "source": "patent US20240216490A1",
  "about": "“Autoantigens Engineered to Suppress Autoimmune Response” (Osprey Biopharmaceuticals, Inc., priority 2022, published 2024)",
  "key": {"Siglec-2 (CD22)": {"molecular_target": "T1, Siglec-2 (CD22) (Homo sapiens, UniProt P20273)", "T1 sequence (P20273 20-847)": "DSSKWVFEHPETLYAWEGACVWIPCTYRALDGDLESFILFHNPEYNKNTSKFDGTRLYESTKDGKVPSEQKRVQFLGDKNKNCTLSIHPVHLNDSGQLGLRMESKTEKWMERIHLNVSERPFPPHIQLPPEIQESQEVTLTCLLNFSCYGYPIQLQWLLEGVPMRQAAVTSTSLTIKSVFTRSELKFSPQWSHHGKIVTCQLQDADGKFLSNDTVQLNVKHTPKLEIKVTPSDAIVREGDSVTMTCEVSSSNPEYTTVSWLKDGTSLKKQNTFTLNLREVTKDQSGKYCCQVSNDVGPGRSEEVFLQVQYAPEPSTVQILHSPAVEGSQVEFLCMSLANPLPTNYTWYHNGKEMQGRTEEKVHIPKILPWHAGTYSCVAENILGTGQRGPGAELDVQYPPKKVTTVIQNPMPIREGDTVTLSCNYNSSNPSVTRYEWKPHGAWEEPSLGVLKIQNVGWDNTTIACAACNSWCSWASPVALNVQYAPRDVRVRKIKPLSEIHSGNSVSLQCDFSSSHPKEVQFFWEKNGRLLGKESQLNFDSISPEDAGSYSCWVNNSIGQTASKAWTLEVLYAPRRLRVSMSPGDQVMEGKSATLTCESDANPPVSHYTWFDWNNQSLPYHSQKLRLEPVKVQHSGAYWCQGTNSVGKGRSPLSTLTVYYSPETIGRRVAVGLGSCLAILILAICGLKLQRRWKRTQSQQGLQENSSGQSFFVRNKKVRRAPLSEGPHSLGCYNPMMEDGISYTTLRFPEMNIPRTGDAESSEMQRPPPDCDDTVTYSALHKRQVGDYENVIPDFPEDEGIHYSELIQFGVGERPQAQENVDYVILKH", "settings": "value from cited reference; cited from earlier work"}, "C57Bl/6 mice [1]": {"system": "C57Bl/6 mice", "test": "durability of tolerization with late adalimumab challenges (Example 12)", "assay_type": "in vivo, mouse", "settings": "4 weekly 4 mg/kg s.c. doses, then adalimumab 4 mg/kg at days 91, 147, 174, 202", "description": "To evaluate the durability of the induced tolerization status established with the SigL-conjugated adalimumab (as exemplified in Examples 4 and 11), female C57Bl/6 mice (n=5 per group) were primed with four subcutaneous doses of either SigL-conjugated adalimumab (4 mg/kg) or unconjugated adalimumab (4 mg/kg) given seven days apart over a 28 day period. Animals in both groups were later challenged with single subcutaneous doses of unconjugated adalimumab (4 mg/kg) at days 91, 147, 174, and 202. Animals were injected with 0.1 ml (˜4 mg/kg) of the 0.8 mg/ml test article preparations on the rear flanks. The total dose based on a 20 g mouse would be 4 mg/kg per injection per dose. Bleeds were taken for anti-drug antibody analysis at days 0, 28, 112, 146, 168, 201, and 232. Anti-drug antibody (ADA) response assays were performed as described in Example 4."}, "C57BL6 mice [2]": {"system": "C57BL6 mice", "test": "prophylactic tolerization and anti-drug antibody (ADA) production in C57BL6 mice (Example 4)", "assay_type": "in vivo, mouse", "settings": "4 weekly s.c. doses of 4 mg/kg; serum day 28", "description": "To evaluate the production of antibodies specific to adalimumab, two control groups of C57BL6 mice were immunized with adalimumab or the individual SigL-conjugated adalimumab antibodies. Conjugates bear BPC-Neu5Gc-based Siglec Ligand-Linker structures with affinity for Siglec-2. On study day −1, animals were randomized into treatment groups based on body weight. On study day 0, animals were bled for baseline serum and then injected subcutaneously (s.q.) with adalimumab or the individual SigL-conjugated adalimumab antibodies once every seven days for a total of four injections over twenty-eight days. The individual antigens were prepared by making a 0.8 mg/ml antigen solution in sterile buffered saline. Animals were then injected with 0.1 ml (˜4 ml/kg) of the 0.8 mg/ml antigen on the rear flanks. The total dose based on a 20 g mouse would be 4 mg/kg per injection. […]\n(§1) Anti-drug antibody (ADA) response assays were performed on 96-well assay plates (Nunc Plates, Black 96-Well Immuno Plates, Thermo Scientific, 437111) coated with antigen, as follows. […] The excitation and emission settings for the QuantaBlu Fluorogenic Peroxide Substrates are 325 nm and 420 nm and the relative florescence units were measured using a SpectraMax plate reader. […] Titers were determined by the dilution of serum that gives a 2× OD above background."}, "C57Bl/6 mice [3]": {"system": "C57Bl/6 mice", "test": "ex vivo flow cytometry of splenic adalimumab-specific and germinal center B cells (Example 13)", "assay_type": "in vivo, mouse", "description": "To measure B cell activation following the described stimulation, cells were washed twice by spinning cells at 1200 rpm for 5 minutes and rinsing with PBS. Cells were then resuspended in staining buffer (1% bovine serum albumin/0.1% sodium azide/1× phosphate buffered saline) and incubated with Fc-block (BD Biosciences) for five minutes before the addition of anti-CD45, anti-CD19, anti-CD69, and anti-CD86 antibodies (BD Biosciences, Biolegend, Fisher). Cells were then incubated in the dark for an additional 30 minutes at room temperature. Cells were then washed three times with staining buffer and then analyzed on a ZE5 Cell Analyzer (BioRad). Data analysis was performed using FlowJo (v10.8.0) software.\nFor studies evaluating the generation of adalimumab-specific B cells, C57Bl/6 mice were dosed with a single subcutaneous dose of either SigL-adalimumab (4 mg/kg) or unconjugated adalimumab (4 mg/kg). Splenocytes were then isolated from animals seven days after dosing. In the experiment depicted in FIG. 15, mice that had been dosed with unconjugated adalimumab (4 mg/kg) on Day 0 were dosed again on Day 3 with SigL-adalimumab (4 mg/kg, subcutaneous) or vehicle (PBS) prior to splenocyte isolation on Day 7 of the study.\nFor the evaluation of germinal center formation (FIG. 14), C57Bl/6 mice were dosed with a single subcutaneous dose of either SigL-adalimumab (4 mg/kg), unconjugated adalimumab (4 mg/kg) or vehicle (PBS) on Day 0. Animals in each arm of this study were then dosed on Day 7 with either a single subcutaneous dose of SigL-adalimumab (4 mg/kg) or unconjugated adalimumab (4 mg/kg). Formation of adalimumab-specific B cells and germinal center B cells were then analyzed on Day 14 of the study as described below.\nAt the specified time points described above, splenocytes were harvested from individual animals and made into single cell suspension, subjected to red cell lysis using ACK buffer, and plated at a concentration of 200,000 cells per well in round bottom 96 well plates in complete RPMI media. Cells were then processed for flow cytometry as described above. For adalimumab-specific B cells, splenocytes were stained with anti-CD4, ant-CD8a, anti-F4/80, anti-LY6G, anti-CD19, anti-IgD (BD Biosciences, Biolegend, Fisher, eBioscience) and adalimumab-[…] conjugate (Invitrogen). For germinal center B cells, splenocytes were stained with anti-CD45, anti-CD19, anti-GL7, and anti-CD95. Cells were then incubated in the dark for an additional 30 minutes at room temperature. Cells were then washed three times with staining buffer and then analyzed on a ZE5 Cell Analyzer (BioRad). Data analysis was performed using FlowJo (v10.8.0) software."}, "C57Bl/6 mice [4]": {"system": "C57Bl/6 mice", "test": "ADA response to adalimumab-anti-mouse CD22 scFv fusion protein in mice (Example 15)", "assay_type": "in vivo", "settings": "after a single 4 mg/kg dose", "description": "To evaluate the production of antibodies specific to adalimumab and/or adalimumab-anti-mouse CD22 scFv fusion protein, 8 week old female C57BL/6 mice (n=5 per group) were immunized through intravenous injection with adalimumab or adalimumab-anti-mouse CD22 scFv fusion protein. On study day −1, animals were randomized into treatment groups based on body weight. On study day 0, animals were bled for baseline serum and then injected IV with adalimumab or adalimumab-anti-mouse CD22 scFv fusion protein. Animals were dosed […] with 4 mg/kg of adalimumab or adalimumab-anti-mouse CD22 scFv fusion protein. Animals were bled via the retro-orbital sinus weekly throughout the study under inhaled isoflurane anesthesia. On study day, 28 animals were anesthetized with inhaled isoflurane anesthesia and then bled via cardiac puncture and then sacrificed by cervical dislocation. […]\nas §1, with “ADA” for “Anti-drug antibody (ADA) response”"}, "C57BL6 mice [5]": {"system": "C57BL6 mice", "test": "anti-antigen antibody production in C57BL6 mice pre-dosed with adalimumab (Example 5)", "assay_type": "in vivo, mouse", "settings": "one to four weekly 4 mg/kg s.c. doses (groups A to D); serum day 27", "description": "To evaluate the production of antibodies specific to adalimumab-SigL conjugates after pre-dosing with adalimumab, C57BL6 mice were immunized with adalimumab one, two, three, or four times (groups A to D), or once with adalimumab followed by two doses of adalimumab-SigL (Group E) (FIG. 5). Conjugates bear BPC-Neu5Gc-based Siglec Ligand-Linker structures with affinity for Siglec-2. On study day −1, animals were randomized into treatment groups based on body weight. On study day 0, animals were bled for baseline serum and then injected subcutaneously (s.q.) with adalimumab, SigL-conjugated adalimumab antibody, or PBS, once every seven days for a total of four injections over twenty-eight days. The individual antigens were prepared by making a 0.8 mg/ml antigen solution in sterile buffered saline. Animals were then injected with 0.1 ml (˜4 ml/kg) of the 0.8 mg/ml antigen on the rear flanks. […]\nas §1"}},
  "note": "pIC50: −log10 of the molar value.",
  "data": [
    {"compound": "CO[C@]1(C(=O)O)CC(O)[C@@H](NC(C)=O)C([C@H](O)[C@H](O)CNC(=O)c2ccc(-c3ccccc3)cc2)O1", "note": "(stereo partly shown)", "values": [
      {"measurement": "pIC50", "setting": "Siglec-2 (CD22)", "result": 5.40}
    ]},
    {"compound": "COc1ccc(OC2OC(COC3(C(=O)O)CC(O)C(NC(=O)CO)C(C(O)C(O)CNCc4ccc(-c5ccc(O)cc5)cc4)O3)C(O)C(O)C2O)cc1", "note": "(stereo not shown)", "values": [
      {"measurement": "pIC50", "setting": "Siglec-2 (CD22)", "result": 6.62}
    ]},
    {"compound": "O=C(Cc1ccc(-c2ccc(O)cc2)cc1)NCC(O)C(O)C1OC(OCc2ccccc2)(C(=O)O)CC(O)C1NC(=O)CO", "note": "(stereo not shown)", "values": [
      {"measurement": "pIC50", "setting": "Siglec-2 (CD22)", "result": 7.00}
    ]},
    {"compound": "O=C(Cc1ccc(-c2ccc(O)cc2)cc1)NC[C@@H](O)C(O)C1O[C@@](OCc2cccc(Cl)c2Cl)(C(=O)O)CC(O)[C@H]1NS(=O)(=O)c1ccccc1[N+](=O)[O-]", "note": "(stereo partly shown)", "values": [
      {"measurement": "pIC50", "setting": "Siglec-2 (CD22)", "result": 7.22}
    ]},
    {"compound": "COC1(C(=O)O)CC(NS(=O)(=O)c2ccc(C)cc2)C(NC(C)=O)C(C(O)C(O)CNC(=O)c2ccc(-c3ccccc3)cc2)O1", "note": "(stereo not shown)", "values": [
      {"measurement": "pIC50", "setting": "Siglec-2 (CD22)", "result": 6.82}
    ]},
    {"compound": "adalimumab", "values": [
      {"measurement": "anti-drug antibody level", "setting": "C57Bl/6 mice [1]", "result": "strong, saturating level of ADA"},
      {"measurement": "immunogenicity (anti-drug antibody response, serum IgG titer)", "setting": "C57BL6 mice [2]", "result": "highly immunogenic"},
      {"measurement": "presence of adalimumab-specific B cells (CD45+CD19+IgD−Adal+) in spleen", "setting": "C57Bl/6 mice [3]; 7 days post single 4 mg/kg s.c. dose", "result": "detected"},
      {"measurement": "splenic adalimumab-specific B cells", "setting": "C57Bl/6 mice [3]; day 14, s.c. dosing days 0 and 7, conjugate day 0 followed by adalimumab day 7", "result": "induces"},
      {"measurement": "mean abundance of adalimumab-specific B cells", "setting": "C57Bl/6 mice [3]; spleen, 7 days post single 4 mg/kg s.c. dose", "result": "0.2 % of splenic IgD^− B cells"},
      {"measurement": "germinal center B cells (CD19+CD95+GL7+)", "setting": "C57Bl/6 mice [3]; spleen, day 14, dosing days 0 and 7", "result": "increase in the abundance of germinal center B cells"},
      {"measurement": "immunogenicity in mice (immunoglobulin response)", "setting": "C57Bl/6 mice [4]", "result": "highly immunogenic"},
      {"measurement": "anti-adalimumab titers", "setting": "C57BL6 mice [5]", "result": "progressively stronger anti-adalimumab titers"}
    ]}
  ]
}
